# Tests used:
# cAMP phosphodiesterase = settings: Chairungsrilerd and Takeuchi et al., 1996; cited from earlier work
# [1] = test system: L-929 mouse fibroblast cells; assay: Toxicity Study 1: cytotoxicity of serially diluted extract, microscopic scoring; type: cell-based; settings: control media/extracts undiluted; triplicate wells
# Description: The purpose of this study was to evaluate an extract of mangosteen for its level of cytotoxicity in a mammalian system. Accordingly, a serially diluted extract of a 10% mangosteen pericarp test article for cytotoxicity to mammalian cells in culture (L-929 mouse fibroblast cells, from the American Type Culture Collection: CCL-1). The test article, originally a 10% mangosteen preparation) was incubated in an appropriate volume of cell culture medium (Earle's Minimal Essential Medium, E-MEM) in a sterile vessel for 24 to 25 hours at 37 ±1° C. At the end of the extraction period, the extract was decanted from the test article. A series of eight (8) dilutions of the extract was prepared in culture medium in a two-fold dilution sequence. After the dilutions were prepared, the maintenance culture medium was removed from test culture wells and replaced with 1 ml of article test dilutions. […] The cultures were evaluated for cytotoxic effects by microscopic examination at 24, 48, and 72±4 hours of incubation, and the results scored and recorded. […]
# Criteria for evaluating cytotoxicity included morphologic changes in cells, such as granulation, crenation, or rounding, and loss of viable cells from the monolayer by lysis or detachment. […] Degrees of toxicity are scored according to the scheme in Table 2: […]
# [2] = test system: mammalian cells in culture; assay: Toxicity Study 2: cytotoxicity of serially diluted extract, microscopic scoring; type: cell-based; settings: control media/extracts undiluted
# Description: The purpose of this study was to evaluate a serially diluted extract of a 40% mangosteen pericarp test article for cytotoxicity to mammalian cells in culture. The test article was incubated in an appropriate volume of E-MEM in a sterile vessel for 24 to 25 hours at 37 f 1° C. After measures were taken to create a clear supernatant, a series of eight (8) dilutions of the extract were prepared in E-MEM in a two-fold dilution sequence. After the dilutions were prepared, the maintenance culture media was removed from test culture wells and replaced with 1 ml of test media dilutions in triplicate wells. The positive control media, test article extract, and control extracts were added at the same time to the culture plate in triplicate wells. The plates were incubated for 72 hours at 37±1° C. in a humidified atmosphere of 5±1% CO2 in air. The cultures were evaluated for cytotoxic effects by microscopic examination at 24,48 and 72±4 hours of incubation and the results scored and recorded. After the 24 hour extraction the liquid was transferred to a 50 mL conical tube and centrifuged for 10 minutes at 3000 rpm. A small pellet of powder created by the separation was discarded, the resultant supernatant was clear with a light brown color and a pH of 7.5.
# Criteria for evaluating cytotoxicity included morphologic changes in cells, such as granulation, crenation, or rounding, and loss of viable cells from the monolayer by lysis or detachment. The validity of the test requires that negative control cultures maintain a healthy normal appearance throughout the duration of the test. Degrees of toxicity are scored as in Table 1, above: […]
# COX 1 = COX 1 (Homo sapiens, UniProt P23219); settings: Nakatani et al., 2002, 2004; cited from earlier work
# Sequence of COX 1 (P23219 24-599): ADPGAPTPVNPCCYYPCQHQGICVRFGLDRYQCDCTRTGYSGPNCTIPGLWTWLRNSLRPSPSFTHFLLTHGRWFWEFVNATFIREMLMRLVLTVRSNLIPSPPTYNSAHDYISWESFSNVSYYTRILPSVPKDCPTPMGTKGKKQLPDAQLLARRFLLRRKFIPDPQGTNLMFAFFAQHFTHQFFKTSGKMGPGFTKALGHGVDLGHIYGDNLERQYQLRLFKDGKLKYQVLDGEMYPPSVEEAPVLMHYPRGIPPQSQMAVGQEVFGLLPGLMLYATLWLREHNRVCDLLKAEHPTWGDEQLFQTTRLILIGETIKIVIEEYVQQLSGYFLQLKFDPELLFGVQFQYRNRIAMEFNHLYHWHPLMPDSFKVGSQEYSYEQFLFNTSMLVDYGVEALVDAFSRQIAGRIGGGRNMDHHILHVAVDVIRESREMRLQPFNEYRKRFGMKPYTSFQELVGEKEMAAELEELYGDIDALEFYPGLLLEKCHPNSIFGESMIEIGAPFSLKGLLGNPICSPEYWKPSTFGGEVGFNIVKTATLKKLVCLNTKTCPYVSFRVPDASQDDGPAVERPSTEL
# DNA topoisomerase = settings: Tosa et al., 1997; cited from earlier work
# serotonin receptors = settings: Chairungsrilerd et al., 1996, 1998; cited from earlier work
smiles,measurement,setting,value
COc1c(O)cc2oc3cc4c(c(O)c3c(=O)c2c1CC=C(C)C)CC(O)C(C)(C)O4 (centres unmarked) [Mangostanol],inhibition of cAMP phosphodiesterase,cAMP phosphodiesterase,strong inhibition
"[Cl][Cd][Cl] [Positive Control, CdCl2]",Cytotoxicity Scores at 72 Hr,[1],4/4/4
same,Cytoxicity Scores 24 Hr,[2],4/4/4
same,Cytoxicity Scores 48 Hr,[2],4/4/4
same,Cytoxicity Scores 72 Hr,[2],4/4/4
CC(C)=CCc1c(O)cc2oc3cc(O)c(O)c(CC=C(C)C)c3c(=O)c2c1O [gamma-mangostin],inhibition of the activity of cyclooxygenase COX 1,COX 1,directly inhibit the activity
same,inhibition of DNA topoisomerase,DNA topoisomerase,inhibits
same,action on serotonin receptors,serotonin receptors,antagonist

# — patent US20060292255A1, “Pharmaceutical and therapeutic compositions derived from Garcinia mangostana L plant” (priority 2004, published 2006)
